# Reference: US20230416836A1, “METHOD FOR PREDICTING RESPONSIVENESS TO PLK1 INHIBITION” (National University of Singapore, priority 2020, published 2023)
# “Also recorded” adds a separate entry of the source.
# Experiments:
# [1] = system: GES1 ARID1A WT and KO cells; experiment: Cell titre blue assay in GES1 ARID1A WT and KO cells; assay type: cell-based; details: GES1 ARID1A WT vs KO
# Excerpt: (§1) This synthetic lethal interaction was validated using Volasertib in multiple isogenic ARID1A WT and KO cell lines, using cell proliferation and colony formation assays (FIG. 3 A-E).
# [2] = system: MCF10A ARID1A WT and KO cells; experiment: Cell titre blue assay in MCF10A ARID1A WT and KO cells; assay type: cell-based; details: MCF10A ARID1A WT vs KO
# Excerpt: as §1
# [3] = system: GES1 ARID1A-WT and KO cells; experiment: colony formation assay in GES1 ARID1A-WT and KO cells; assay type: cell-based; details: GES1 ARID1A-WT vs KO
# Excerpt: as §1
# [4] = system: OVCAR3 ARID1A WT and KO cells; experiment: Cell proliferation assays in OVCAR3 cells; assay type: cell-based; details: OVCAR3 ARID1A WT vs KO
# Excerpt: as §1
# [5] = system: OVCAR3-ARID1A KO xenografts; experiment: mouse xenograft experiments with OVCAR3-ARID1A WT or KO cells; assay type: in vivo; details: Nude (SCID) mice, 15 mg/kg body weight once per week for 4 weeks
# Method: Nude (SCID) mice received sub-cutaneous injections of OVCAR3-ARID1A WT or KO cells. Tumors were visible 10 days post injection, after which the animals were treated with Volasertib (15 mg/kg body weight) or vehicle once per week for 4 weeks. Body mass and tumor volumes were recorded twice per week. Mice were sacrificed at the end of 4 weeks of treatment and tumors were isolated and imaged, (B) Body mass measurements of mice measured twice per week, (C) Tumor volume measurements of mice measured twice per week, p<0.05, student's t-test, (D) Images of OVCAR3-ARID1A WT/KO tumors isolated from mice after sacrifice, (E) Dot plot of tumor area from D showing changes in tumor area in OVCAR3-ARID1A KO vs OVCAR3-ARID1A KO+volasertib treatment. Tumor area was calculated from the images in image J using the ruler to set scale and applying free hand tool to measure the tumor area.
# as §1
# [6] = system: GES1 ARID1A WT and KO cells; experiment: mitochondrial depolarization measured using JC-1; assay type: cell-based; details: post treatment
# Excerpt: (§2) HSC70 was used as loading control.
# [7] = system: GES1 ARID1A-WT and KO cells; experiment: Annexin-V staining (apoptosis); assay type: cell-based
# Excerpt: as §2
# GES1 cells = experiment: Western blots of cleaved PARP in GES1 cells; assay type: cell-based; details: GES1 whole cell lysates, indicated time points
# Excerpt: as §2
# OVCAR3 cells = experiment: Western blots of cleaved PARP in OVCAR3 cells; assay type: cell-based; details: OVCAR3 whole cell lysates, indicated time points
# Excerpt: as §2
# [8] = system: GES1-ARID1A isogenic cell lines; experiment: metabolomics by 1D NMR; assay type: cell-based; details: GES1-ARID1A WT and KO
# Excerpt: (B) Heat map of important metabolites up/down regulated in GES1-ARID1A WT and KO with and without volasertib treatment, as measured by 1D NMR.
# In addition, ARID1A loss causes a dramatic alteration in transcriptome leading to up or down regulation of many important biological pathways (FIG. 6).
# cancer = details: Phase II clinical trials; cited from earlier work
# MCF10A ARID1A KO cells = experiment: cell survival screen with clinically applicable kinase inhibitors; assay type: cell-based; details: MCF10A system, ARID1A KO vs WT, ratios of Z-scores
# Excerpt: FIG. 2: Generation of ARID1A KO cells in (A) GES1, (B) MCF10A, (C) OVCAR3, (D) Ratios of Z-scores, showing hits from preliminary FDA approved kinase inhibitor screen.
# ARID1A Knockout (KO) cell lines were generated using CRISPR-Cas9 gene editing in multiple cellular contexts where ARID1A is lost-Gastric (GES1), Breast (MCF10A), and Ovarian (OVCAR3) (FIG. 2 A-C).
SMILES,"synthetic lethality, cell titre blue assay [1]","synthetic lethality, cell titre blue assay [2]","synthetic lethality, colony formation assay [3]","synthetic lethality, cell proliferation assays [4]","anti-tumor activity on xenografts (tumor volume, tumor area) [5]","anti-tumor activity on xenografts (tumor volume, tumor area) ([5]; 15 mg/kg)",mitochondrial depolarization (JC-1) [6],apoptosis and cell killing ([7]; ARID1A KO cells),"apoptosis, Annexin-V positive cells ([7]; GES1 ARID1A-KO cells, post treatment)",cleaved PARP accumulation (GES1 cells),cleaved PARP accumulation (OVCAR3 cells),changes in metabolic intermediates / metabolomics [8],clinical result as monotherapy (cancer),sensitivity of cells with loss of ARID1A in cell survival screen (MCF10A ARID1A KO cells)
CC[C@@H]1C(=O)N(C)c2cnc(Nc3ccc(C(=O)N[C@H]4CC[C@H](N5CCN(CC6CC6)CC5)CC4)cc3OC)nc2N1C(C)C [Volasertib],synthetic lethality between ARID1A loss and Volasertib,synthetic lethality between ARID1A loss and Volasertib,synthetic lethality between ARID1A loss and Volasertib,synthetic lethality between ARID1A loss and Volasertib,Anti-tumor activity,synthetically lethal relationship was also demonstrated,markedly increases mitochondrial depolarization; also recorded: increased depolarization post Volasertib treatment in a time dependent manner,selective cell killing in ARID1A KO cells,further increase post Volasertib treatment,increased accumulation of cleaved PARP,increased accumulation of cleaved PARP,profound changes in the metabolomics; also recorded: exacerbated upon volasertib treatment,encouraging results as monotherapy,
COc1cc(C(=O)NC2CCN(C)CC2)c(F)cc1Nc1ncc2c(n1)N(C1CCCC1)CC(F)(F)C(=O)N2C [TAK960],,,,,,,,,,,,,,preferentially sensitivity
